Laboratory results as given in US9050345B2, “Pyrrolotriazines as potassium ion channel inhibitors” (BRISTOL-MYERS SQUIBB COMPANY, priority 2013, dated 2015).

These compounds were tested against T1, human KV 1.5 (IKur) (Homo sapiens, UniProt P22460) (assay: block of IKur current in patch clamped L-929 cells expressing human Kv1.5). Details: 0.3 μM; patch clamped mammalian L-929 cells stably expressing human Kv1.5.
T1 construct: expressed in transfected cells
Assay type: cell-based
Description: Assays to determine the degree of activity of a compound as an IKur inhibitor are well known in the art and are described in references such as J. Gen. Physiol., 101(4):513-543 (April 1993), and Br. J. Pharmacol., 115(2):267-274 (May 1995).
Synders, D. J. et al., “A rapidly activating and slowly inactivating potassium channel cloned from human heart: functional analysis after stable mammalian cell culture expression”, J. Gen. Physiol., 101:513-543 (1993). • 2. Zhou, Z. et al., “Block of HERG potassium channels by the antihistamine astemizole and its metabolites desmethylastemizole and norastemizole”, J. Cardiovasc. Electrophysiol., 10(6):836-843 (1999).

T1 sequence (P22460 whole entry): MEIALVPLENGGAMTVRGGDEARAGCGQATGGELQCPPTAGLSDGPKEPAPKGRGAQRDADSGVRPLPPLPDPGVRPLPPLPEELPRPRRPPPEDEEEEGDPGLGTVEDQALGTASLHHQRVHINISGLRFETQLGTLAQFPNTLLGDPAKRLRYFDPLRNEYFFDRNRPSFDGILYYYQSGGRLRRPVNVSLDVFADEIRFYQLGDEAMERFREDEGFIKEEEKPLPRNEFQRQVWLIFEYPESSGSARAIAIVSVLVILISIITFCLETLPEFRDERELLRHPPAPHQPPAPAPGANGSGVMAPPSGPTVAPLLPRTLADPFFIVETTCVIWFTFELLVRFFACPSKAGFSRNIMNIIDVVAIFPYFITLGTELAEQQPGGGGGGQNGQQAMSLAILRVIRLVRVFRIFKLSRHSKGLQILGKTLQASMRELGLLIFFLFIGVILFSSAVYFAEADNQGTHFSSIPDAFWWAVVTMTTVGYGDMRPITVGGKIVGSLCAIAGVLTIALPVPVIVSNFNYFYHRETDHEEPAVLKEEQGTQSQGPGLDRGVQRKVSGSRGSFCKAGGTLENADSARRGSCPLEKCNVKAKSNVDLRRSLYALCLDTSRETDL

Compound	KV1_5% Inh L929 @0.3 μM
1-(1-(4- (benzylamino)-5- phenylpyrrolo [1,2-f][1,2,4] triazine-2-carbonyl) piperidin-4-yl)-1H- benzo[d]imidazol- 2(3H)-one [Example 121]	38.74%
4-(4-(benzylamino)-5- phenylpyrrolo [1,2-f][1,2,4] triazin-2-yl) picolinic acid [Example 95]	98.08%
CC(Nc1nc(-c2cncc(S(N)(=O)=O)c2)nn2ccc(-c3ccccc3)c12)c1ccccc1 (centres unmarked) [Example 8, 5-(5-Phenyl-4-(1-phenylethylamino)pyrrolo[1,2-f][1,2,4]triazin-2-yl)pyridine-3-sulfonamide]	95.79%
OCC(O)c1cncc(-c2nc(NCc3ccccc3)c3c(-c4ccccc4)ccn3n2)c1 (centres unmarked) [Example 14, 1-(5-(4-(Benzylamino)-5-phenylpyrrolo[1,2-f][1,2,4]triazin-2-yl)pyridin-3-yl)ethane-1,2-diol]	90.60%
OCC(O)c1nc(NCc2ccccc2)c2c(-c3ccccc3)ccn2n1 (centres unmarked) [Example 18, 1-(4-(Benzylamino)-5-phenylpyrrolo[1,2-f][1,2,4]triazin-2-yl)ethane-1,2-diol]	47.37%
CC(O)c1cncc(-c2nc(NCc3ccccc3)c3c(-c4ccccc4)ccn3n2)c1 (centres unmarked) [Example 21, 1-(5-(4-(Benzylamino)-5-phenylpyrrolo[1,2-f][1,2,4]triazin-2-yl)pyridin-3-yl)ethanol]	96.63%

Same assay, conditions: L929, 0.3 μM; patch clamped mammalian L-929 cells stably expressing human Kv1.5; read-out: KV1_5% Inh L929 @0.3 μM

Compound	inhibition at 0.3 µM
N#C[C@@H]1C[C@H]1c1nc(NCc2ccccn2)c2c(-c3ccccc3)ccn2n1 (racemic) [Example 43, (±)-2-(5-Phenyl-4-(pyridin-2-ylmethylamino)pyrrolo[1,2-f][1,2,4]triazin-2-yl)cyclopropanecarbonitrile]	98.6%
NC(=O)[C@@H]1C[C@H]1c1nc(NCc2ccccn2)c2c(-c3ccccc3)ccn2n1 (racemic) [Example 44, (±)-2-(5-Phenyl-4-(pyridin-2-ylmethylamino)pyrrolo[1,2-f][1,2,4]triazin-2-yl)cyclopropanecarboxamide]	98.8%
NS(=O)(=O)c1cncc(-c2nc(NCc3ccccc3)c3c(-c4ccccc4)ccn3n2)c1 [Example 1, 5-(4-(Benzylamino)-5-phenylpyrrolo[1,2-f][1,2,4]triazin-2-yl)pyridine-3-sulfonamide]	96.5%
NS(=O)(=O)c1cncc(-c2nc(NCc3ccccn3)c3c(-c4ccccc4)ccn3n2)c1 [Example 2, 5-(5-Phenyl-4-(pyridin-2-ylmethylamino)pyrrolo[1,2-f][1,2,4]triazin-2-yl)pyridine-3-sulfonamide]	98.5%
CS(=O)(=O)Nc1cncc(-c2nc(NCc3ccccn3)c3c(-c4ccccc4)ccn3n2)c1 [Example 3, N-(5-(5-Phenyl-4-(pyridin-2-ylmethylamino)pyrrolo[1,2-f][1,2,4]triazin-2-yl)pyridin-3-yl)methanesulfonamide]	94.1%
NC(=O)CC(=O)Nc1cncc(-c2nc(NCc3ccccc3)c3c(-c4ccccc4)ccn3n2)c1 [Example 4, N1-(5-(4-(Benzylamino)-5-phenylpyrrolo[1,2-f][1,2,4]triazin-2-yl)pyridin-3-yl)malonamide]	97.3%
NS(=O)(=O)c1nc(-c2nc(NCc3ccccn3)c3c(-c4ccccc4)ccn3n2)cs1 [Example 5, 4-(5-Phenyl-4-(pyridin-2-ylmethylamino)pyrrolo[1,2-f][1,2,4]triazin-2-yl)thiazole-2-sulfonamide]	98.5%
NS(=O)(=O)c1cncc(-c2nc(NCc3ccccn3)c3c(-c4ccc(F)cc4)ccn3n2)c1 [Example 6, 5-(5-(4-Fluorophenyl)-4-(pyridin-2-ylmethylamino)pyrrolo[1,2-f][1,2,4]triazin-2-yl)pyridine-3-sulfonamide]	91.7%
COc1ccc(-c2nc(NCc3ccccn3)c3c(-c4ccc(OC)nc4)ccn3n2)cn1 [Example 7, 2,5-Bis(6-methoxypyridin-3-yl)-N-(pyridin-2-ylmethyl)pyrrolo[1,2-f][1,2,4]triazin-4-amine]	97.8%
CC(Nc1nc(-c2cncc(S(N)(=O)=O)c2)nn2ccc(-c3ccccc3)c12)c1ccccc1 (centres unmarked) [Example 8, 5-(5-Phenyl-4-(1-phenylethylamino)pyrrolo[1,2-f][1,2,4]triazin-2-yl)pyridine-3-sulfonamide]	97.5%
NC(=O)c1cncc(-c2nc(NCc3ccccn3)c3c(-c4ccccc4)ccn3n2)c1 [Example 9, 5-(5-Phenyl-4-(pyridin-2-ylmethylamino)pyrrolo[1,2-f][1,2,4]triazin-2-yl)nicotinamide]	98.4%
O=C(O)c1cncc(-c2nc(NCc3ccccn3)c3c(-c4ccccc4)ccn3n2)c1 [Example 10, 5-(5-Phenyl-4-(pyridin-2-ylmethylamino)pyrrolo[1,2-f][1,2,4]triazin-2-yl)nicotinic acid]	86%
c1ccc(CNc2nc(-c3cncc(-c4nnn[nH]4)c3)nn3ccc(-c4ccccc4)c23)cc1 [Example 11, 2-(5-(1H-Tetrazol-5-yl)pyridin-3-yl)-N-benzyl-5-phenylpyrrolo[1,2-f][1,2,4]triazin-4-amine]	93.4%
O=C(O)c1cncc(-c2nc(NCc3ccccc3)c3c(-c4ccccc4)ccn3n2)c1 [Example 12, 5-(4-(Benzylamino)-5-phenylpyrrolo[1,2-f][1,2,4]triazin-2-yl)nicotinic acid]	88.2%
NC(=O)c1cncc(-c2nc(NCc3ccccc3)c3c(-c4ccccc4)ccn3n2)c1 [Example 13, 5-(4-(Benzylamino)-5-phenylpyrrolo[1,2-f][1,2,4]triazin-2-yl)nicotinamide]	95.9%
OCC(O)c1cncc(-c2nc(NCc3ccccc3)c3c(-c4ccccc4)ccn3n2)c1 (centres unmarked) [Example 14, 1-(5-(4-(Benzylamino)-5-phenylpyrrolo[1,2-f][1,2,4]triazin-2-yl)pyridin-3-yl)ethane-1,2-diol]	95%

Compound	inhibition at 0.3 µM
NS(=O)(=O)c1cncc(-c2nc(NCc3ccccc3)c3c(-c4ccccc4)ccn3n2)n1 [Example 15, 6-(4-(Benzylamino)-5-phenylpyrrolo[1,2-f][1,2,4]triazin-2-yl)pyrazine-2-sulfonamide]	95.5%
NS(=O)(=O)c1cc(-c2nc(NCc3ccccc3)c3c(-c4ccccc4)ccn3n2)cnc1O [Example 16, 5-(4-(Benzylamino)-5-phenylpyrrolo[1,2-f][1,2,4]triazin-2-yl)-2-hydroxypyridine-3-sulfonamide]	91.1%
CC(C)(O)c1cncc(-c2nc(NCc3ccccc3)c3c(-c4ccccc4)ccn3n2)c1 [Example 17, 2-(5-(4-(Benzylamino)-5-phenylpyrrolo[1,2-f][1,2,4]triazin-2-yl)pyridin-3-yl)propan-2-ol]	92.4%
OCC(O)c1nc(NCc2ccccc2)c2c(-c3ccccc3)ccn2n1 (centres unmarked) [Example 18, 1-(4-(Benzylamino)-5-phenylpyrrolo[1,2-f][1,2,4]triazin-2-yl)ethane-1,2-diol]	40.9%
O=C(O)CCc1cncc(-c2nc(NCc3ccccc3)c3c(-c4ccccc4)ccn3n2)c1 [Example 19, 3-(5-(4-(Benzylamino)-5-phenylpyrrolo[1,2-f][1,2,4]triazin-2-yl)pyridin-3-yl)propanoic acid]	91.3%
OCc1cncc(-c2nc(NCc3ccccc3)c3c(-c4ccccc4)ccn3n2)c1 [Example 20, (5-(4-(Benzylamino)-5-phenylpyrrolo[1,2-f][1,2,4]triazin-2-yl)pyridin-3-yl)methanol]	96.6%
CC(O)c1cncc(-c2nc(NCc3ccccc3)c3c(-c4ccccc4)ccn3n2)c1 (centres unmarked) [Example 21, 1-(5-(4-(Benzylamino)-5-phenylpyrrolo[1,2-f][1,2,4]triazin-2-yl)pyridin-3-yl)ethanol]	93.2%
COC(=O)C1CCCN1C(=O)c1cncc(-c2nc(NCc3ccccc3)c3c(-c4ccccc4)ccn3n2)c1 (centres unmarked) [Example 22, Methyl 1-(5-(4-(benzylamino)-5-phenylpyrrolo[1,2-f][1,2,4]triazin-2-yl)nicotinoyl)pyrrolidine-2-carboxylate]	95.1%
NS(=O)(=O)c1cncc(-c2nc(NCCOc3cnccn3)c3c(-c4ccccc4)ccn3n2)c1 [Example 23, 5-(5-Phenyl-4-((2-(pyrazin-2-yloxy)ethyl)amino)pyrrolo[2,1-f][1,2,4]triazin-2-yl)pyridine-3-sulfonamide]	91.6%
OCC(CO)c1cncc(-c2nc(NCc3ccccc3)c3c(-c4ccccc4)ccn3n2)c1 [Example 24, 2-(5-(4-(Benzylamino)-5-phenylpyrrolo[1,2-f][1,2,4]triazin-2-yl)pyridin-3-yl)propane-1,3-diol]	63.5%
NC(=O)Nc1cncc(-c2nc(NCc3ccccn3)c3c(-c4ccccc4)ccn3n2)c1 [Example 25, 1-(5-(5-Phenyl-4-(pyridin-2-ylmethylamino)pyrrolo[1,2-f][1,2,4]triazin-2-yl)pyridin-3-yl)urea]	96.8%
CC(=O)Nc1ccc(-c2nc(NCc3ccccn3)c3c(-c4ccccc4)ccn3n2)cc1 [Example 26, N-(4-(5-Phenyl-4-(pyridin-2-ylmethylamino)pyrrolo[1,2-f][1,2,4]triazin-2-yl)phenyl)acetamide]	94.5%
CS(=O)(=O)Nc1cccc(NC(=O)c2nc(NCc3ccccc3)c3c(-c4ccccc4)ccn3n2)c1 [Example 27, 4-(Benzylamino)-N-(3-(methylsulfonamido)phenyl)-5-phenylpyrrolo[1,2-f][1,2,4]triazine-2-carboxamide]	93.2%
NC(=O)CNS(=O)(=O)c1cncc(-c2nc(NCc3ccccn3)c3c(-c4ccccc4)ccn3n2)c1 [Example 28, 2-(5-(5-Phenyl-4-(pyridin-2-ylmethylamino)pyrrolo[1,2-f][1,2,4]triazin-2-yl)pyridine-3-sulfonamido)acetamide]	97.5%
NC(=O)CCC(=O)Nc1cncc(-c2nc(NCc3ccccn3)c3c(-c4ccccc4)ccn3n2)c1 [Example 30, N1-(5-(5-Phenyl-4-(pyridin-2-ylmethylamino)pyrrolo[1,2-f][1,2,4]triazin-2-yl)pyridin-3-yl)succinamide]	96.3%
NC(=O)C(=O)Nc1cncc(-c2nc(NCc3ccccn3)c3c(-c4ccccc4)ccn3n2)c1 [Example 31, N1-(5-(5-Phenyl-4-(pyridin-2-ylmethylamino)pyrrolo[1,2-f][1,2,4]triazin-2-yl)pyridin-3-yl)oxalamide]	98.6%
